Measurements published in patent US20220031670A1, “PHARMACEUTICAL COMBINATIONS FOR USE IN THE TREATMENT OF NEOPLASTIC DISEASES” (Basilea Pharmaceutica International AG, priority 2018, published 2022).
Marks after values point to notes of the source that are not given here.

Key:
[1] = tested on: patient-derived pancreatic tumour PAXF1657 xenograft; assay: Antitumor efficacy and induction of cures in the patient-derived PAXF1657 pancreatic xenograft model; type: in vivo, female NMRI nu/nu mice; conditions: for # of regressed tumors (total) / T/C: day 21 after first dose; for # of confirmed cures (total) / # of tumors with TV ≤ 4 mm^3 (total) / % cures: day 60 after first dose (endpoint); for tumor free animals / cures (in words): single agent treatment (BAL101553 even at 16 mg/kg; Gemcitabine SoC)
Method: The tumor xenografts are derived from surgical specimens from cancer patients. Following excision at surgery, tumor pieces were subcutaneously implanted into immunodeficient mice and are therefore referred to as patient tumor explants passaged subcutaneously in nude mice or as patient-derived tumor xenografts (PDX). Establishment and characterization of the PDXs was performed following their primary implantation into immunodeficient mice (passage 1). The tumor xenografts were passaged until establishment of a stable growth pattern. At that point, master stocks of early passage PDXs were frozen in liquid nitrogen. Usually, a particular stock batch is only used for a limited number of further passages.
Tumor fragments for implantation were obtained from xenografts in serial passage in female NMRI nu/nu mice (NMRI-Foxn1nu). After removal from donor mice, tumors were cut into fragments (3-4 mm edge length) and placed in PBS containing 10% penicillin/streptomycin. Recipient female mice (10 weeks old NMRI-Foxn1nu animals) were anesthetized by inhalation of isoflurane and received unilateral tumor implants of PAXF1657 tumors subcutaneously in the flank.
Mice and tumor implants were monitored daily until solid tumor growth was detectable in a sufficient number of animals. At randomization, the volume of growing tumors was determined. Tumors were measured (mm) in two dimensions using calipers, and volume was calculated using the formula: Tumor Volume (TV) (mm^3)=(width^2×length)/2. […] Sixteen days after tumor cell implantation, on Day 0 of the study, mice were randomized into groups of 10 animals, with group median tumor volumes of 106.6-109.2 mm^3 and body weights of 25.3-27.0 g.
The solution of BAL101553 with a concentration of 1.6 mg/ml for dosing at 16 mg/kg and as stock solution for the preparation of the other dosing solutions was prepared at the beginning of the study by dissolving 595.2 mg of the provided powder in 300 ml vehicle (stirring/vortexing/sonicating if necessary). The acidity of this solution was adjusted to pH 5 with a 1% sodium acetate solution; afterwards the total volume was adjusted to 372 ml by addition of the vehicle (99.7% (v/v) saline solution (0.9% (w/v) NaCl), 0.3% (v/v) sodium acetate, pH 5). The stock solution was sterile filtered and aliquoted into vials of each 12 ml that were stored at −20° C. One vial was thawed on each dosing day. For the 16 mg/kg dose, the solution was applied undiluted; for 8 mg/kg dose, one volume of the stock solution was diluted with one volume vehicle prior to application; and for 10 mg/kg dose, one volume of the stock solution was diluted with 0.6 volumes vehicle
The Gemcitabine dosing solution at a concentration of 24 mg/ml for dosing at 240 mg/kg was prepared once per week on the dosing day by dissolving 591.89 mg of Gemcitabine-HCl (Gemedac®, Medac Germany) corresponding to 264 mg active pharmaceutical ingredient in 11 ml of the vehicle (0.9% (w/v) NaCl). The dosing solution was administered in a dose volume of 10 ml/kg.
All doses were adjusted to 10 mL/kg. […] Gemcitabine was administered i.v. and BAL101553 orally.
The antitumor effect of the combination treatment with BAL101553 (prodrug of BAL27862) and gemcitabine was evaluated in the established in vivo subcutaneous patient-derived pancreatic mouse xenograft model PAXF1657. By using 3 different dosing regimens of BAL101553 as monotherapy, standard of care (SoC) dosing of gemcitabine monotherapy and the combination treatment of two different dosing regimens of BAL101553 with SoC gemcitabine, the anticancer effect of single agent treatments and of the combined treatments were determined and compared. […]

[2] = Tolerability (body weight, mortalities) in the PAXF1657 pancreatic xenograft model
Method: Animals were housed in individually ventilated cages ([…] Sealsafe™-IVC-System, […], Hohenpeissenberg, Germany), depending on group size, either in type III or type II long cages. They were kept under a 14 L:10D artificial light cycle. The temperature inside the cages was maintained at 25±1° C. with a relative humidity of 40-70% and an air change (AC) rate in the cage of 60-65 AC/hour. Dust-free bedding consisting of aspen wood chips with approximate dimensions of 5×5×1 mm (ABEDD®-LAB & VET Service GmbH, Vienna, Austria, Product Code: LTE E-001) and additional nesting material were used. The cages including the bedding and the nesting material were changed weekly. The animals were fed autoclaved Teklad Global 19% Protein Extruded Diet (T.2019S.12) from Envigo RMS SARL and had access to sterile filtered and acidified (pH 2.5) tap water that was changed twice weekly. Feed and water were provided ad libitum. All materials were autoclaved prior to use. Animals were provided with a nutrient fortified water gel (DietGel® Recovery from ClearH2O, Maine, USA) from day 0 to day 45, which was changed every other day.
Groups of mice (n=10) bearing PAXF1657 tumors were dosed as outlined in Table 1. All doses were adjusted to 10 mL/kg. The control groups received oral doses of vehicle (pH 5 buffered 0.9% NaCl solution). Gemcitabine was administered i.v. and BAL101553 orally. When Gemcitabine and BAL0101553 were dosed in combination, Gemcitabine was administered first followed by a delay of 4 h for the BAL0101553 dosing.
Body weights and tumor volumes were recorded twice weekly until the end of the on day 60. These parameters were analyzed and graphically represented by using GraphPad-Prism™ 7 for Windows according to standard procedure. Tumor growth regression was defined as TV (at day 21)−TV (day 0)<0. […] Tumor free animals at the end of the study time (day 60) were assessed for residual PAXF1657 tumor cells by pathological methods. Skin und subcutaneous tissue including the tumor cell inoculation site from the flank region were resected, preserved in formalin and embedded in paraffin. Sections of approximately 5 μm were mounted on glass slides and stained with hematoxylin/eosin and were evaluated by a trained pathologist, to identify residual tumor cells at the site of injection, and were being reported as positive for the existence of residual tumor cells or as negative for a complete lack of any evidence of residual tumor cells.
Dosing schemes are outlined in Table 1.

[3] = Pharmacokinetic profile in mouse plasma (LC-MS/MS), single agents versus combination; type: in vivo, PAXF1657 tumor bearing mice; conditions: 10 minutes to 24 hours, BAL101553 oral, Gemcitabine 240 mg/kg i.v. 4 hours before BAL101553
Method: PAXF1657 tumor bearing mice of the identical strain were treated either with BAL101553 oral 10 mg/kg, Gemcitabine 240 i.v. mg/kg or with a combination of BAL101553 and Gemcitabine where Gemcitabine was administered 4 hours before BAL101553. Control animals received appropriate vehicle control. The mice were dosed until steady state was reached (BAL101553 was dosed d1-d3 and Gemcitabine was dosed on day 3, the doses used for the combination-treatment matched those used in the monotherapy). Blood was taken from every animal according to a determined schedule covering a time window of 10 minutes to 24 hours, processed for plasma and subsequently analyzed by LC-MS/MS for the determination of BAL27862 (parent drug of BAL101553) and Gemcitabine concentrations (ng/ml plasma). Data points represent mean values of ng/ml plasma concentration+/−SEM (n=3 animals). […]
The following calibration ranges in mouse plasma were applied: 1.00 to 500 ng/mL and 10 to 10000 ng/mL for BAL27862 and 10.0 to 10000 ng/mL for BAL101553 and Gemcitabine. Thus, the limit-of-quantitation (LOQ) was: 1 ng/mL for BAL27862 and 10.0 ng/mL for BAL101553 and Gemcitabine. […]

[4] = Gemcitabine i.v. 240 mg/kg qw (h:0) x6
[5] = BAL101553 p.o. 8 mg/kg qd (h:4) x42
[6] = BAL101553 p.o. 10 mg/kg qd (h:4) x42
[7] = BAL101553 p.o. 16 mg/kg qd (h:4) x42

For `Nc1ccn([C@@H]2O[C@H](CO)[C@@H](O)C2(F)F)c(=O)n1` [Gemcitabine, gemcitabine, reference compound], the “# of regressed tumors (total)” value [1, 4] was 4 (10), the T/C [1, 4] was 0.03 and the “# of confirmed cures (total)” value [1, 4] was 0 (10). For the same compound, the “# of tumors with TV ≤ 4 mm^3 (total)” value [1, 4] was 1 (10), the “% cures” value [1, 4] was 0% and the “tumor free animals / cures (in words)” value [1] was “did not lead to tumor free animals (no cures)”. The “tumor regression (in words)” value ([1]; single agent treatment (BAL101553 even at 16 n/kg; Gemcitabine SoC)) was “induced regression in some of the animals”, the Mortalities ([2]; Gemcitabine i.v. 240 mg/kg qw (h:0) x6, day 21 after first dose, 1 animal culled on day 8 (body-weight loss of more than 20%)) was 1/10* and the “Body-weight change” value ([2]; mouse, in vivo, iv, 240 mg/kg) was 0.9 ± 0.8 g. For the same compound, the “plasma concentrations, single agents versus combination” value [3] was “did not change significantly”.

In the case of `N#CCCNc1nonc1-c1nc2ccccc2n1CC(=O)c1ccc(N)cc1` [BAL27862, 3-(4-{1-[2-(4-Amino-phenyl)-2-oxo-ethyl]-1H-benzoimidazol-2-yl}-furazan-3-ylamino)-propionitrile], the “plasma concentrations, single agents versus combination” value [3] is reported as “did not change significantly”.

In the case of `N#CCCNc1nonc1-c1nc2ccccc2n1CC(=O)c1ccc(NC(=O)[C@@H](N)CCCCN)cc1` [BAL101553, (S)-2,6-Diamino-hexanoic acid [4-(2-{2-[4-(2-cyano-ethylamino)-furazan-3-yl]-benzoimidazol-1-yl}-acetyl)-phenyl]-amide], the “# of regressed tumors (total)” value [1, 5] is reported as 0 (10), the T/C [1, 5] is reported as 0.52 and the “# of confirmed cures (total)” value [1, 5] is reported as 0 (10). The “# of tumors with TV ≤ 4 mm^3 (total)” value [1, 5] was 0 (20), the “% cures” value [1, 5] was 0% and the “# of regressed tumors (total)” value [1, 6] was 0 (10). For the same compound, the T/C [1, 6] was 0.33, the “# of confirmed cures (total)” value [1, 6] was 0 (10) and the “# of tumors with TV ≤ 4 mm^3 (total)” value [1, 6] was 0 (10). For the same compound, the “% cures” value [1, 6] was 0%, the “# of regressed tumors (total)” value [1, 7] was 0 (10) and the T/C [1, 7] was 0.28. For the same compound, the “# of confirmed cures (total)” value [1, 7] was 0 (10), the “# of tumors with TV ≤ 4 mm^3 (total)” value [1, 7] was 0 (10) and the “% cures” value [1, 7] was 0%. The “tumor free animals / cures (in words)” value [1] was “did neither lead to tumor free animals”, the Mortalities ([2]; female, NMRI nu/nu, mouse, in vivo, po, 8 mg/kg, 21 day) was 0/10 and the Mortalities ([2]; female, NMRI nu/nu, mouse, in vivo, po, 10 mg/kg, 21 day) was 0/10. For the same compound, the Mortalities ([2]; female, NMRI nu/nu, mouse, in vivo, po, 16 mg/kg, 21 day) was 0/10, the “Body-weight change” value ([2]; mouse, in vivo, po, 8 mg/kg) was 0.9 ± 0.8 g and the “Body-weight change” value ([2]; mouse, in vivo, po, 10 mg/kg) was 1.0 ± 1.2 g. For the same compound, the “Body-weight change” value ([2]; mouse, in vivo, po, 16 mg/kg) was 1.1 ± 0.9 g.
